In PMC5398698, “Uncovering the molecular and physiological processes of anticancer leads binding human serum albumin: A physical insight into drug efficacy” (PLoS ONE, 2017):
Where two headings read alike, the source gives them in different places.

Columns and labels:
[1] = system: plasma proteins; test: Estimate of fraction bound to plasma proteins from association constants; parameters: species or system human; details: estimated with Kd / ([P]f + Kd)
Description: The function of HSA as drug carrier may facilitate drug access to the action site and be related to drug safety issues. Application of HSA on drug delivery may therefore be important in anticancer therapy, which has been taken into account in estimating therapeutic outcomes, particularly for highly bound compounds (defined as < 5% free drug compounds in blood). The free to bound drug rates can be estimated by using the formula Kd / ([P]f + Kd) through approximating the free protein concentration as [P]f = [P]T − [L]T [41]. […] Therefore, the affinity determines the steady state concentration of unbound or exposed drug in the plasma, maintaining a concentration gradient between the intestinal lumen and plasma, which is considered as the only fraction exerting the bioactivity. […] Moreover, both hepatic uptake and glomerular filtration are directly proportional to the free drug fraction presented in the plasma while drugs are modulated by the affinity difference of the plasma and tissue proteins. If a drug is highly bound to HSA and has a high extraction raio, the binding promotes metabolism by transporting the drug to liver, resulting in the decrease of free drug fraction. On the other hand, if a drug has a low liver extraction ratio, metabolism will be decreased by high HSA binding. […]

[2] = target: T1, Human serum albumin (HSA) (Homo sapiens, UniProt P02768); test: Isothermal titration calorimetry (ITC) of leads binding HSA; details: 310 K
T1 construct: purchased Sigma-Aldrich A3782
T1 sequence (P02768 25-609): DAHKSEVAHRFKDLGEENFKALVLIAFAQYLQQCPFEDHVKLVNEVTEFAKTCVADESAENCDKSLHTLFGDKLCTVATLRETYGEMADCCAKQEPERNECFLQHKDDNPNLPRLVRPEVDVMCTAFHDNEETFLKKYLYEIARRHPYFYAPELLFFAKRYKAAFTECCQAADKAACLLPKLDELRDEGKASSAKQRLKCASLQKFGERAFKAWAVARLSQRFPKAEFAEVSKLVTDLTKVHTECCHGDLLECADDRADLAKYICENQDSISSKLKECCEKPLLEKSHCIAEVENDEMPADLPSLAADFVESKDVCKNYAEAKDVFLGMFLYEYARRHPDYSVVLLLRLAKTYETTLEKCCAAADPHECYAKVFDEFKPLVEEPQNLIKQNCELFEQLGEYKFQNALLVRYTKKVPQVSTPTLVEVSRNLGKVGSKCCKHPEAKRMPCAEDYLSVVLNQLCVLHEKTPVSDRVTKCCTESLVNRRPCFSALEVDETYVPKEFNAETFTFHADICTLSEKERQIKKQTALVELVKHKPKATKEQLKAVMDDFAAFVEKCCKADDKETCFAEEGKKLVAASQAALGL
Method: The calorimetry measurement was carried out by isothermal titration calorimetry (ITC) (TA Instruments, USA) at 310 K. HSA in different reaction buffers (0.01 M PBS and 0.025 M MES) were extensively dialyzed before titration. […] The titration was afterward started with continuously stirring at 250 rpm. The raw heat rate data were integrated under injection peaks to obtain the reaction heat of each injection after substracting dilution heat which was measured by injecting with a blank control titration. The calculated heat changes were analyzed using the NANOanalyze software (TA Instruments, USA) and replotted with Origin 8.5. The free energy change (ΔG), enthalpy change (ΔH) and entropy change (ΔS) were calculated according to the thermodynamic formulas below: ΔG=−RTlnKA=ΔH−TΔS
Where KA is the association constant at the absolute temperature T (310 K) and R represents the gas constant (8.3151 J mol^-1K^-1).

[3] = target: T1, Human serum albumin (HSA); test: SPR binding kinetic measurement on immobilized HSA
Method: Binding kinetic measurement was performed using Reichert 4-chanel SPR instrument Reichert4SPR (Reichert, USA). HSA was immobilized on carboxymethyl dextran chip at the condition of 0.1 mg/mL protein in 10 mM sodium acetate (pH 4.5). The final density is about 12,000 RU and flow rate is 20 μl/min. During immobilizing, the sensor chip was preconditioned with 3-min injection of double diluted water. Thereafter, the first flow cell surface was activated through using 0.05 M N-hydroxysuccinimide (NHS)/0.2 M 1-ethyl-3-(3-dimethylaminopropyl)carbodiimide hydrochloride (EDC) for 7 min, and then functionalized by injecting a solution of HSA (0.1 mg/mL) in 10 mM sodium acetate buffer (pH 4.5) for 20 min. Finally, unreacted NHS groups were deactivated with 1 M ethanolamine (pH 8.5) for 10 min. Simultaneously, the control flow cell was treated using the same conditions as described above. […] Final data obtained were corrected for instrumental and bulk artifacts by double referencing to a control sensor chip surface and blank buffer injection. The binding responses were concentration-dependent and dissociation constant KD values were derived from 1:1 kinetic model as well as steady state analysis using TraceDrawer software (Reichert, USA).

[4] = target: T1, Human serum albumin (HSA); test: Steady-state fluorescence quenching of HSA by anticancer leads; assay type: binding; details: for ΔG: temperature-dependent fluorescence quenching
Method: Steady-state fluorescence spectra were recorded on an Eclipse fluorescence spectrophotometer (Agilent Cary, USA) with a 1 cm path length quartz cuvette at 293 K and 298 K, respectively. Sample temperature was kept within ± 0.2 degree by recycled water throughout the experiment. The excitation and emission band passes were all set at 5 nm by keeping the excitation wavelength at 290 nm to achieve maximum fluorescence emission. The emission spectra was measured in the region of 305–450 nm, and the fluorescence intensity at peak position 340 nm was extracted for further analysis. HSA was diluted from stock solution with reaction buffer to a concentration of 10 μM for each quenching experiment. Titration was performed by successive addition of 1 mM anticancer leads into quartz cuvette, and the minor intensity decrease due to volume change was corrected by the control experiment.
In Fluorescence quenching, the inner filter effect (IFE) is of importance due to its effect on the emission intensity. One of the biggest causes of the IFE is the re-absorption of the emitted light in the excitation and emission region. It is an important issue that these effects cause severe underestimation of the fluorescence intensity measured because the concentration of the quencher increases when a Stern-Volmer analysis is carried out, and therefore the ability of the quencher to absorb the emitted light will also increase.
Where Aem and Aex represent the absorbance of small moecule at emission and excitation wavelength, respectively. F0 and Fc represent the observed fluorescence intensity and corrected fluorescence intensity, respectively.
In an attempt to gain insight into the molecular mechanism of HSA association, we have determined the binding mechanism, binding constant, binding site, and the number of binding sites. […] (1) Where F and F0 is the steady state fluorescence intensity in the presence and absence of quencher, respectively; Kq, τ0 and [Q] is the quenching rate constant, the average lifetime of the molecule without quencher and the concentration of quencher, respectively.
Modified Stern-Volmer plots are shown in Fig 3C and 3D, showing good linearity to modified Stern-Volmer equation: log[(F0−F)/F]=logKA+nlog[Q] (2)
F0−F/F0=Bmax(KA[Q])^h/1+(KA[Q])^h+Pnsb×[Q] (3)
Where F and F0 are the steady state fluorescence intensity in the presence and absence of quencher, respectively; [Q] is the concentration of quencher, Bmax is the maximum independent binding site classes, KA is the effective binding affinity; h is the Hill coefficient that describes the degree of ligand binding cooperativity and Pnsb is the nonspecific binding coefficient.
Usually, the types of interaction forces between small molecules and macromolecules mainly include hydrogen bonds, van der Waals forces, electrostatic interactions and hydrophobic interactions. To estimate the binding mode, the thermodynamic parameters, ΔH, ΔS and ΔG are often considered. On the basis of the characteristic signs of the thermodynamic parameters, the interaction forces between small molecule and protein can be assigned to hydrophobic interaction (ΔH > 0, ΔS > 0), van der Waals force (ΔH < 0, ΔS < 0) and electrostatic attraction (ΔH < 0, ΔS > 0). The entropy and enthalpy can be considered constant at a constant temperture, which is regulated by the van’t Hoff equation: lnKA=−ΔH/RT+ΔS/R (4)

[5] = target: T1, Human serum albumin (HSA); test: Fluorescence resonance energy transfer (FRET) distance HSA W214 to lead; assay type: binding; details: Forster theory; k^2 = 2/3, N = 1.36, Φ = 0.15
Description: Fluorescence resonance energy transfer (FRET) occurs when the UV absorption spectrum of small molecule (acceptor) overlaps with the fluorescence emission spectrum of fluoreophore (donor). The fluorescence emission peak of HSA mostly locates in the range of the UV-vis absorption spectra of the two anticancer leads (Fig 5A and 5B). This indicates the possibility of FRET occuring between HSA and anticancer leads. According to Forster’s non-radiative energy transfer theory, the distance r between donor W214 of HSA and the acceptor of small molecule is determined by the relationship below: E=1−F/F0=R0^6/R0^6+r^6 (5) where E is the energy transfer efficiency; F and F0 are the fluorescence intensity in the presence and absence of quencher. […] In this case here, k^2 = 2/3 is for random orientation as in fluid solution, N = 1.36, Φ = 0.15, and J is calculated as: J=∑F(λ)ε(λ)λ^4Δλ/∑F(λ)Δλ (7) where F(λ) is the fluorescence intensity of the fluorescence donor of wavelength λ; and ε(λ) is the molar absorption coefficient calculated by Lambert-Beer relationship ε(λ) = A(λ)/cl at wavelength λ. The integration step was chosen to be the scanning data interval of 1 nm.

## CC(=O)OCCC(C)CCC=C(C)C (centres unmarked) [NSC48693]
[1]
  compound bound to plasma proteins: over 98%
[2]
  stoichiometry number: 0.94 ± 0.06
  ΔG: -6.898 kcal/mol
  ΔH: -5.581 ± 0.605 kcal/mol
  ΔS: 17.81 J mol^-1 K^-1
[2]; one-site independent model
  binding constant (KA): 7.29 ± 2.68 × 10^4 M^-1
[3]
  dissociation rate slower than that of NSC290956: approximately 5 fold
[3]; SPR sensorgram shape
  kinetic behavior: fast-on and slow-off
[3]; SPR, 1:1 kinetic model
  Ka (association rate constant): 2410 M⁻¹ s⁻¹
  koff (dissociation rate constant): 0.0333 s⁻¹
[3]; SPR, 1:1 kinetic model, read-out: KD (dividing kinetic parameters, 1:1 model)
  Kd: 13.8 µM
[3]; SPR, steady-state phase data, read-out: Steady State KD
  Kd: 12.3 µM
[3]; as measured with different experimental methods
  binding affinity to HSA larger than that of NSC290956: 3~8 fold
[4]; 293 K
  n (reaction stoichiometric number, modified Stern-Volmer): 0.91 ± 0.013
[4]; 293 K, fit to Eq (2)
  binding constant KA (modified Stern-Volmer): 3.31 ± 0.16 × 10^4 M^-1
[4]; 293 K, one class of binding sites
  Hill coefficient h (nonlinear regression fitting): ~1.0
[4]; T 293 K
  ΔG: -5.614 kcal/mol
[4]; T 298 K
  ΔG: -5.636 kcal/mol
[4]; as quoted in the ITC comparison
  n obtained by Hill equation: 0.91
[4]; fluorescence lifetime of tryptophan in HSA around 10^-8 s, 10 μM HSA
  quenching rate constant Kq (Stern-Volmer): 1.36 ± 0.016 × 10^12 M^-1s^-1
[4]; van't Hoff, 293 K and 298 K
  ΔH: -4.548 kcal/mol
  ΔS: 15.27 J mol^-1 K^-1
[5]
  donor-acceptor distance r between HSA and lead: 3.65 nm
